Test results taken from PMC4645160, “Targeting kinases with anilinopyrimidines: discovery of N-phenyl-N’-[4-(pyrimidin-4-ylamino)phenyl]urea derivatives as selective inhibitors of class III receptor tyrosine kinase subfamily” (Scientific Reports, 2015).

How the values were obtained:
[1] = tested on: A431 cells; experiment: MTT cytotoxicity assay, A431 epidermoid carcinoma cells; assay type: cell-based; settings: Homo sapiens, A-431; MTT test, 72 h; read-out: A431 IC50 (μM) ± SD
Procedure: F. Zunino (Division of Experimental Oncology B, Istituto Nazionale dei Tumori, Milan, Italy).
The growth inhibitory effect towards human cell lines was evaluated by means of MTT (tetrazolium salt reduction) assay. […] Triplicate cultures were established for each treatment.

[2] = tested on: A549 cells; experiment: MTT cytotoxicity assay, A549 lung cancer cells; assay type: cell-based, human; settings: for IC50: Homo sapiens, A549, 72 h, MTT test, 72 h of drug treatment, read-out: A549 IC50 (μM) ± SD
Procedure: Compounds active against at least one kinase among EGFR and class III RTKs were evaluated for their cytotoxic properties against two different human cancer cell lines, namely non small cells A549 lung cancer cells (sensitive to EGFR inhibitors)[46] and pancreatic BxPC3 adenocarcinoma (sensitive to both PDGFRβ and EGFR inhibitors)[47][48] cells. […] The results, expressed as IC50 values (μM) calculated from the dose-survival curves obtained after 72 h of drug treatment from the MTT test, are reported in Table 1.
(§1) All compounds, except derivative 27, were dissolved in DMSO just before the experiment, and a calculated amount of drug solution was added to the cell growth medium to a final solvent concentration of 0.5%, which had no discernible effect on cell killing. Compound 27 was dissolved in a 0.9% NaCl solution just before the experiment.
Human lung (A549), breast (MCF-7), pancreas (BxPC3), and colon (LoVo) carcinoma cell lines along with melanoma (A375) were obtained from American Type Culture Collection (ATCC, Rockville, MD). Human non-tumor embryonic kidney HEK293 cells were obtained from European Collection of Cell Cultures (ECACC, Salisbury, UK). Human cervical carcinoma A431cells were kindly provided by Prof. F. Zunino (Division of Experimental Oncology B, Istituto Nazionale dei Tumori, Milan, Italy). Human ovarian cancer 2008 cells were kindly provided by Prof. G. Marverti (Dept. of Biomedical Science of Modena University, Italy). Cell lines were maintained in the logarithmic phase at 37 °C in a 5% carbon dioxide atmosphere using the following culture media containing 10% fetal calf serum (Euroclone, Milan, Italy), antibiotics (50 units ∙ mL^−1 penicillin and 50 μg ∙ mL^−1 streptomycin) and 2 mM l-glutamine: i) RPMI-1640 medium (Euroclone) for MCF-7, A431, BxPC3 and 2008 cells; ii) F-12 HAM’S (Sigma Chemical Co.) for A549 and LoVo cells; iii) D-MEM medium (Euroclone) for HEK293 cells.
The growth inhibitory effect towards human cell lines was evaluated by means of MTT (tetrazolium salt reduction) assay. Briefly, 3–8 ∙ 10^3 cells/well, dependent upon the growth characteristics of the cell line, were seeded in 96-well microplates in growth medium (100 μL) and then incubated at 37 °C in a 5% carbon dioxide atmosphere. After 24 h, the medium was removed and replaced with a fresh one containing the test compound at the appropriate concentration. Triplicate cultures were established for each treatment. After 72 h, each well was treated with 10 μL of a 5 mg ∙ mL-1 MTT (3-(4,5-dimethylthiazol-2-yl)-2,5-diphenyltetrazolium bromide) saline solution, and after 5 h additional incubation, 100 μL of a sodium dodecylsulfate (SDS) solution in HCl 0.01 M were added. After overnight incubation, the inhibition of cell growth induced by the tested complexes was detected by measuring the absorbance of each well at 570 nm using a Bio-Rad 680 microplate reader (Bio-Rad, Hercules, CA). Mean absorbance for each drug dose was expressed as a percentage of the control untreated well absorbance and plotted vs drug concentration.

[3] = tested on: MCF-7 cells; experiment: MTT cytotoxicity assay, MCF-7 breast cancer cells; assay type: cell-based; settings: Homo sapiens, MCF7; MTT test, 72 h; read-out: MCF-7 IC50 (μM) ± SD
Procedure: (§2) The cytotoxic profile of 19 and 27 was assessed on a wider panel of human tumor cell lines including also examples of breast (MCF-7), cervical (A431), colorectal (HCT-15), and ovarian (2008) cancers as well as melanoma (A375), besides lung (A549) and pancreatic (BxPC3) cancer cells. IC50 values, calculated from the dose-survival curves obtained after 72 h of drug treatment from the MTT test, are reported in Table 2. […] Both compounds were endowed with a cytotoxic potency higher than that of SU, eliciting IC50 values in the low micromolar range.
as §1
(§3) Human lung (A549), breast (MCF-7), pancreas (BxPC3), and colon (LoVo) carcinoma cell lines along with melanoma (A375) were obtained from American Type Culture Collection (ATCC, Rockville, MD). Human non-tumor embryonic kidney HEK293 cells were obtained from European Collection of Cell Cultures (ECACC, Salisbury, UK). Human cervical carcinoma A431cells were kindly provided by Prof. F. Zunino (Division of Experimental Oncology B, Istituto Nazionale dei Tumori, Milan, Italy). Human ovarian cancer 2008 cells were kindly provided by Prof. G. Marverti (Dept. of Biomedical Science of Modena University, Italy). […]
(§4) The growth inhibitory effect towards human cell lines was evaluated by means of MTT (tetrazolium salt reduction) assay. […] After overnight incubation, the inhibition of cell growth induced by the tested complexes was detected by measuring the absorbance of each well at 570 nm using a Bio-Rad 680 microplate reader (Bio-Rad, Hercules, CA). Mean absorbance for each drug dose was expressed as a percentage of the control untreated well absorbance and plotted vs drug concentration.

[4] = target: T1, KIT (Homo sapiens, UniProt P10721); experiment: KinomeScan Kd determination, KIT; assay type: binding; settings: for KdRTK/KdKIT, KIT: Kd KIT over Kd KIT; for Kd: KinomeScan
T1 construct: purchased DiscoverX (KinomeScan service)
Procedure: The compounds were evaluated using the KinomeScan™ platform (http://www.discoverx.com/services/drug-discovery-development-services/kinase-profiling/kinomescan), that measures the ability of the test compound to disrupt the complex between a high affinity ATP-mimic probe immobilized on a solid support and the kinase of interest. The KinomeScan is a very helpful technology for the fast and reliable screening of a number of compounds against a wide and customizable panel of kinases. Besides, it is not based on the use of hazardous radioactive ^32P-ATP and has a very low rate of false positive (<1%)[44]. The screening platform outputs a “Percent of Control” (POC) value, statistically correlated to the dissociation constant (Kd) value (http://www.discoverx.com/tools-resources/leadhunter-study-reports-data-analysis), for each pair of kinase/ligand. The POC is calculated as reported in equation (1): […]
The ability of compounds 19 and 27 to bind the class III RTK members was measured (Table 2; see also Figs S3 and S4 for dose/response curves).
Figure S3. Dose/response curve for compound 19 against tested kinases for Kd determination. The amount of kinase measured by qPCR (Signal; y-axis) is plotted against the corresponding compound concentration in nM in log10 scale (x-axis). Data points marked with an "x" were not used for Kd determination.
(1 picture or pasted object on this page, not shown here)
Figure S4. Dose/response curve for compound 27 against tested kinases for Kd

[5] = tested on: A375 cells; experiment: MTT cytotoxicity assay, A375 melanoma cells; assay type: cell-based; settings: Homo sapiens, A-375; MTT test, 72 h; read-out: A375 IC50 (μM) ± SD
Procedure: as §2, §1, §3, §4

T1 sequence (P10721 26-976): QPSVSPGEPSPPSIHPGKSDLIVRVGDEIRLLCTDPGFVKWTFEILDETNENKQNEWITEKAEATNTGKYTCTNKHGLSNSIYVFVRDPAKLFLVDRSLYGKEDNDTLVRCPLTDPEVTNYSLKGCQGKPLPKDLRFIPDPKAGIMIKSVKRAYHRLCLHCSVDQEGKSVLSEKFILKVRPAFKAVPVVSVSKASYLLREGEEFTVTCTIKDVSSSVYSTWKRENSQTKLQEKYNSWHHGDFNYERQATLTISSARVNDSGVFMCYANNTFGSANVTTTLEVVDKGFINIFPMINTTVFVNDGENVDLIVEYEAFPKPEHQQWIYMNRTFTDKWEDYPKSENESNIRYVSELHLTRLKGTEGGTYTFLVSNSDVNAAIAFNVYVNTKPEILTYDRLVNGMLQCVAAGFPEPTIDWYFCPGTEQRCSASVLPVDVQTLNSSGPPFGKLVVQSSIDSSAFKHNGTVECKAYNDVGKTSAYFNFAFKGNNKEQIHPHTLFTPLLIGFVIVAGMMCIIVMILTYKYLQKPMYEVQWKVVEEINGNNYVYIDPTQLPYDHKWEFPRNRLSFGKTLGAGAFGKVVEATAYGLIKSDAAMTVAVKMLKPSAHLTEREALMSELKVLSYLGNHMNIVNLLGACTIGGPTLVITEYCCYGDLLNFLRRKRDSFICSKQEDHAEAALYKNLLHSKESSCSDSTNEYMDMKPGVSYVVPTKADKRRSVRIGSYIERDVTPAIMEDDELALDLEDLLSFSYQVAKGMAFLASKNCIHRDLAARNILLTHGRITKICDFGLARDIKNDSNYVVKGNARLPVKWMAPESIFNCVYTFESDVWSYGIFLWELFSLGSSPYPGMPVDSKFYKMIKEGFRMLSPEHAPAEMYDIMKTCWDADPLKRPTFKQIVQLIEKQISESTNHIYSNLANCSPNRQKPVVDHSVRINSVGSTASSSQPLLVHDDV

SMILES | IC50 [1] | IC50 [2] | IC50 [3] | Potency improvement Kd19/Kd27, KIT ([4]; 27 versus 19) | KdRTK/KdKIT, KIT [4] | Kd [4] | IC50 [5] | Potency relative to SU (A549) ([2]; ratio between IC50 of sunitinib and IC50 of tested compound, A549)
O=C(CN1CCOCC1)Nc1cccc(-c2cc(Nc3ccc(NC(=O)Nc4ccccc4)cc3)ncn2)c1 [Compound 27] | 1.96 ± 0.92 µM | 3.11 ± 1.09 µM | 1.55 ± 0.75 µM | 2.2 | 1 | 10 nM | 5.56 ± 1.39 µM | –
O=C(Nc1ccccc1)Nc1ccc(Nc2cc(-c3ccccc3)ncn2)cc1 [Compound 19] | 2.85 ± 1.03 µM | 3.16 ± 1.12 µM | 1.23 ± 0.89 µM | – | 1 | 22 nM | 6.41 ± 2.02 µM | 1.97
